Data as given in publication PMC9699600, “Characterization of a Family of Scorpion Toxins Modulating Ca^2+-Activated Cl^− Current in Vascular Myocytes” (Toxins, 2022).

Experiments:
[1] = tested on: Ca2+-activated and voltage-activated K+ currents; assay: Ca2+-activated and voltage-activated K+ currents, patch clamp; assay type: cell-based, rat; details: 100 nM, sequential application
Protocol: For K^+ current recording, the patch-clamp pipette contained 130 mM KCl and the external solution contained 5.6 mM KCl. Ca^2+-activated and voltage-activated K^+ currents were elicited by depolarizing pulses from −80 to 0 mV and Ca^2+-activated K^+ currents were activated by the opening of Ca^2+ channel during the depolarization step.
Voltage-clamp and membrane current recordings were made with a standard patch-clamp technique using a List EPC-7 patch-clamp amplifier (Darmstadt-Eberstadt, Germany). Patch pipettes had resistances of 3–4 MΩ. […] Patch-clamp experiments were carried out at 30 ± 1 °C.
The normal physiological solution contained (in mM): NaCl 130, KCl 5.6, MgCl2 1, CaCl2 2, glucose 11 and HEPES 10, pH 7.4 with NaOH. The basic pipette solution contained (in mM) CsCl 130, HEPES 10 and pH 7.3 with NaOH (CsCl was replaced by KCl for potassium current measurements). […] Lqh peptides, chlorotoxin and other toxins were added in a bath solution.

[2] = molecular target: T1, Ca2+-activated Cl− current (TMEM16A/Ano1) in rat portal vein myocytes (Rattus norvegicus, UniProt A0A8I6GL36); assay: Ca2+-activated Cl− current evoked by caffeine, whole-cell patch clamp; assay type: cell-based; details: 1 µM external application, 10 mM caffeine, holding potential −50 mV
T1 construct: Isolated myocytes from rat portal veins were obtained by enzymatic dispersion; endogenous in cells; host or cells: freshly dissociated rat portal vein smooth muscle cells (short-term primary culture, used within 24 h)
T1 sequence (A0A8I6GL36 1-990): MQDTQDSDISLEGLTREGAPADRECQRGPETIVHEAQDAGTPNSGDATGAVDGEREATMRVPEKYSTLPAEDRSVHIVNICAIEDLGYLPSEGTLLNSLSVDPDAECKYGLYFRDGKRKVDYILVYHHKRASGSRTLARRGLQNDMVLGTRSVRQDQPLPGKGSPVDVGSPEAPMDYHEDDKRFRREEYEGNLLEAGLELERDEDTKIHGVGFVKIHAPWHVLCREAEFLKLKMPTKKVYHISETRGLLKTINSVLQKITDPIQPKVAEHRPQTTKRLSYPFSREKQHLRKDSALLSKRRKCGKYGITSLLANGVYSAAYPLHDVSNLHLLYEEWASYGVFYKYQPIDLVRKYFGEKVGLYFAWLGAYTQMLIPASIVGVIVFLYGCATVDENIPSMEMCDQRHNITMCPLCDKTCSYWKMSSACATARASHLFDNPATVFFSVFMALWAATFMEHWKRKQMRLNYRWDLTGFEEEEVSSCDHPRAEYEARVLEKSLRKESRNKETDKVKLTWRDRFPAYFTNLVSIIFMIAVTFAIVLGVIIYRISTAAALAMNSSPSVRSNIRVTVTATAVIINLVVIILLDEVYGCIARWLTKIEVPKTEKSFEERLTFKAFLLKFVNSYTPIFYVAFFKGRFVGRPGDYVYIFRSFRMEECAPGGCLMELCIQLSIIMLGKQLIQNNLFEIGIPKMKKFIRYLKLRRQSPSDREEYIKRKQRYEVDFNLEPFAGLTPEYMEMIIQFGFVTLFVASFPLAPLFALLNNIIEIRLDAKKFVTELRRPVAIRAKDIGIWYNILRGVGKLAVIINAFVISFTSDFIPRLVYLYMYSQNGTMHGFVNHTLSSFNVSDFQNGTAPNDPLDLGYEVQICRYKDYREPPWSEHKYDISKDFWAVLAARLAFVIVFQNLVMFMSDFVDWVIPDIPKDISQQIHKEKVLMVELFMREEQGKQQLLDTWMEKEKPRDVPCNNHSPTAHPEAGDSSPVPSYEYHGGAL
Protocol: In rat portal vein myocytes, at a holding potential of −50 mV, the external application of 10 mM caffeine induces a transient current depending on an increase in cytoplasmic Ca^2+ concentration, this current was characterized as Cl^− current [9] in the used experimental conditions. The amplitude of the Ca^2+-activated Cl^− current in our setup was 190 ± 20 pA (n = 101).
Isolated myocytes from rat portal veins were obtained by enzymatic dispersion, as described previously (Morel et al. 1996).
Voltage-clamp and membrane current recordings were made with a standard patch-clamp technique using a List EPC-7 patch-clamp amplifier (Darmstadt-Eberstadt, Germany). Patch pipettes had resistances of 3–4 MΩ. When [Ca^2+]i measurements were carried out simultaneously, Indo-1 (50 µM) was added to the pipette solution in the whole-cell recording mode and [Ca^2+]i was estimated from the 405/480 nm fluorescence ratio, using a calibration determined within cells, as previously described [36]. Patch-clamp experiments were carried out at 30 ± 1 °C. […]
The pooled data of n experiments are given as mean ± standard error. […] Inhibition-response curves were analyzed by a nonlinear least-squares fitting program according to models involving one or two binding sites (Graphpad-Prism software).

| Substance | effect on K+ currents (confirmation of both types of K+ currents) [1] | inhibition of the Ca2+-activated Cl− current at 1 µM [2] |
| --- | --- | --- |
| charybdotoxin | inhibition |  |
| scyllatoxin (AFCNLRMCQLSCRSLGLLGKCIGDKCECVKH; UniProt P16341 1-31, looked up) [K+ channel toxin from Latoxan] | inhibition |  |
| chlorotoxin |  | 36 ± 9% |
